The record followed here is patent publication US10556856B2, “Antibacterial agents” (Rutgers, The State University of New Jersey, priority 2014, dated 2020).

Values joined by “and” are separate entries in the source; they are usually repeats but may differ in a detail not shown here. Identical values can stand only once. Counter-ions that a name gives are not always drawn. Like-named read-outs stand apart in the source and are kept apart here.

For one data set, the system named is K. pneumoniae. As to the kind of experiment: CLSI/NCCLS broth microdilution assay. The settings on record: 18 hours. The class given is cell-based. A general note: Dilution methods test growth across graded concentrations, often in twofold steps.
For data set [1], the system named is Staphylococcus aureus Rosenbach ATCC 29213. The data set can be described thus: Broth microdilution assay.
Data set [2] concerns S. aureus. The class given is cell-based.
The next data set concerns B. cepacia. As to the kind of experiment: CLSI/NCCLS broth microdilution assay. The class given is cell-based. The settings on record: 18 hours.
The subject of another data set is L. pneumophilia. As to the kind of experiment: CLSI/NCCLS broth microdilution assay. The class given is cell-based. The settings on record: 18 hours.
In data set [3] the test system is Pseudomonas aeruginosa ATCC 14213. The data set can be described thus: Broth microdilution assay.
For the next data set, the system named is Y. pseudotuberculosis. The class given is cell-based. The settings on record: 18 hours.
Another data set relates to E. faecium. As to the kind of experiment: CLSI/NCCLS broth microdilution assay. The class given is cell-based.
A further data set relates to P. aeruginosa. The data set can be described thus: CLSI/NCCLS broth microdilution assay. The class given is cell-based. The settings on record: 18 hours.
For the next data set, the system named is S. epidermidis. As to the kind of experiment: CLSI/NCCLS broth microdilution assay. The class given is cell-based.
For a further data set, the system named is B. neotomae. The data set can be described thus: CLSI/NCCLS broth microdilution assay. The class given is cell-based. The settings on record: 18 hours.
A further data set deals with A. baumannii. As to the kind of experiment: CLSI/NCCLS broth microdilution assay. The class given is cell-based. The settings on record: 18 hours.
The test system of another data set is B. cereus. The data set can be described thus: CLSI/NCCLS broth microdilution assay. The class given is cell-based.
In data set [4] the test system is Escherichia coli ATCC 43895. As to the kind of experiment: Broth microdilution assay.
The subject of data set [5] is Listeria monocytogenes ATCC 49594. The data set can be described thus: Broth microdilution assay.
The subject of the next data set is E. coli. As to the kind of experiment: Test A MIC/MBC study. The class given is cell-based. The settings on record: for MBC: killing of ≥99.9% of the organisms; for MIC: tryptic soy broth, 37° C. overnight. The protocol:
(§1) MIC/MBC studies were conducted according to a modified literature procedure (LaDow JE, et al. European Journal of Medicinal Chemistry. 46 (2011) 4219-4226). In brief, stock amphiphile solutions were made in 1 mL double-distilled water (0.1M C8 and C10; 0.02M C12), filter sterilized, and sonicated for five minutes. Stocks were then diluted 100× in tryptic soy broth and vortexed. This broth was serially diluted in fresh broth and 100 μL “doped” broth was transferred to 96-well microtiter plate. 10^6 Cfu/mL inoculums were prepared for E. coli and S. aureus. 100 μL inoculum was added to the wells. Plates were put on a shaker for 5 minutes to mix inoculum and broth. Plates were incubated at 37° C. overnight. Wells were visually analyzed the next day by growth or no growth. After MICs were determined, aliquots were taken from each well, plated, and incubated to determine the MBC values for each compound. MBC values were defined as killing of ≥99.9% of the organisms, which corresponds to a 3-log reduction.

For data set [6], the system named is S. aureus. As to the kind of experiment: Test A MIC/MBC study. The class given is cell-based. The settings on record: Staphylococcus aureus; for MBC: killing of ≥99.9% of the organisms; for MIC: tryptic soy broth, 37° C. overnight. How it is done:
as §1

Where [7] appears, read: S. aureus (G+), TSB, 37° C., 24 h.
[8] abbreviates: P. aeruginosa (G−), TSB, 37° C., 24 h.
Where [9] appears, read: E. coli (G−), TSB, 37° C., 24 h.
[10] abbreviates: L. monocytogenes (G+), TSB, 37° C., 24 h.
The mark [11] stands for this setting: Staphylococcus aureus, ATCC29213, 24 h.
The mark [12] stands for this setting: Pseudomonas aeruginosa, ATCC14213, 24 h.
[13] abbreviates: Escherichia coli, ATCC43895, 24 h.
The mark [14] stands for this setting: Listeria monocytogenes, ATCC49594, 24 h.
The mark [15] stands for this setting: Escherichia coli, read-out: MIC.

Take `CCCCCCCCCCC(=O)OC(C(=O)NCCN)C(OC(=O)CCCCCCCCCC)C(=O)NCCN.Cl.Cl` (stereo not shown) [Amphiphile G9]: the MIC with K. pneumoniae is above 50 µg/mL; in [1] (setting [7]) it was 500 µM; against S. aureus [2] it was 6.25 µg/mL; in the data set on B. cepacia, above 50 µg/mL; against L. pneumophilia it was 25 µg/mL; in data set [3] (setting [8]) it was 250 µM. For the same molecule, the MIC was 6.25 µg/mL in the data set on Y. pseudotuberculosis; 6.25 µg/mL in the data set with E. faecium; above 50 µg/mL with P. aeruginosa; 6.25 µg/mL with S. epidermidis; 3.125 µg/mL in the data set on B. neotomae; above 50 µg/mL against A. baumannii. Besides, the MIC in the data set with B. cereus was determined as 6.25 µg/mL; in data set [4] (setting [9]), 125 µM; in data set [5] (setting [10]) it was 250 µM. The “Vero Cell Cytotoxicity” value in the data set with Vero Cell was determined as 50 µg/mL.

As to `CCCCCCCCCCCCCCCC[N+](C)(C)C` [CTAB, Cetyltrimethylammonium bromide, reference compound], the MIC in [1] (setting [11]) came out at 4 µM; in [3] (setting [12]), 16 µM; in data set [4] (setting [13]), 32 µM; in data set [5] (setting [14]) it was 8 µM.

The term MBC denotes the lowest tested concentration that kills the bacteria rather than only halting them. High values mean weaker bactericidal potency, low ones greater bactericidal potency. `CCCNC(=O)[C@H](OC(=O)CCCCCCCN)[C@@H](OC(=O)CCCCCCCN)C(=O)NCCC.Cl.Cl` [Amphiphile B7]: the minimal bactericidal concentration (MBC) with E. coli (Escherichia coli) was 1000 µM and 588 µg/mL; in the data set on S. aureus [6], 500 µM and 294 µg/mL. In addition, the MIC is 1000 µM and 588 µg/mL with E. coli (setting [15]); 500 µM and 294 µg/mL in the data set with S. aureus [6]; 500 µM in [1] (setting [7]); 1000 µM in [3] (setting [8]); 1000 µM in data set [4] (setting [9]); 500 µM in data set [5] (setting [10]).

With `CCCCCCCCC(=O)OC(C(=O)NCCN)C(OC(=O)CCCCCCCC)C(=O)NCCN.Cl.Cl` (stereo not shown) [Amphiphile G7], the MIC in the data set with K. pneumoniae is 50 µg/mL; in data set [1] (setting [7]) it was 63 μM and 62.5* μM; with B. cepacia, above 50 µg/mL; in data set [3] (setting [8]) it was 125 µM; with Y. pseudotuberculosis it was 12.5 µg/mL; in the data set on E. faecium (E. faecium, 18 hours), 6.25 µg/mL. Further, the MIC in the data set with P. aeruginosa is 25 µg/mL; against S. epidermidis it was 12.5 µg/mL; in the data set on B. neotomae it was 3.125 µg/mL; with A. baumannii, above 50 µg/mL; with B. cereus (B. cereus, 18 hours), 6.25 µg/mL; in data set [4] (setting [9]), 63 µM. Further, the MIC in data set [5] (setting [10]) was 63 μM and 62.5* μM. Further, in the data set on Vero Cell, the “Vero Cell Cytotoxicity” value was above 50 µg/mL.

In the case of `CCCCCCCCCCCCOS(=O)(=O)[O-].[Na+]` [SDS, Sodium dodecyl sulfate, reference compound], the MIC in data set [1] (setting [11]) is 1000 µM; in data set [3] (setting [12]), above 2000 µM; in data set [4] (setting [13]), above 2000 µM; in data set [5] (setting [14]), 2000 µM.

Take `CCCNC(=O)[C@H](OC(=O)CCCCCCCCCCCN)[C@@H](OC(=O)CCCCCCCCCCCN)C(=O)NCCC.Cl.Cl` [Amphiphile B11]: the MIC was above 50 µg/mL against K. pneumoniae; 400 µM and 280 µg/mL in the data set with E. coli (setting [15]); 25 µM and 17.5 µg/mL in the data set with S. aureus [6]; 25 µM in data set [1] (setting [7]); 25 µg/mL with S. aureus [2] (S. aureus, 18 hours); above 50 µg/mL against B. cepacia. The MIC was above 50 µg/mL against L. pneumophilia; 50 µM in data set [3] (setting [8]); above 50 µg/mL with Y. pseudotuberculosis; 25 µg/mL against E. faecium (E. faecium, 18 hours); above 50 µg/mL against P. aeruginosa; 25 µg/mL with S. epidermidis (S. epidermidis, 18 hours). Further, the MIC in the data set on B. neotomae is 25 µg/mL; against A. baumannii it was above 50 µg/mL; in the data set on B. cereus (B. cereus, 18 hours), 50 µg/mL; in data set [4] (setting [9]), 100 µM; in [5] (setting [10]) it was 12.5 µM. The minimum bactericidal concentration (MBC) against E. coli (Escherichia coli) is 400 µM and 280 µg/mL; against S. aureus [6], 50 µM and 35 µg/mL. Besides, the “Vero Cell Cytotoxicity” value in the data set on Vero Cell stood at 50 µg/mL.

As for `[H]/N=C(/N)N[C@H]1[C@H](O)[C@@H](O)[C@H](O[C@@H]2O[C@@H](C)[C@](O)(C=O)[C@H]2O[C@@H]2O[C@@H](CO)[C@H](O)[C@@H](O)[C@@H]2NC)[C@@H](N/C(N)=N\[H])[C@@H]1O` [Streptomycin Sulfate, reference compound], the minimal bactericidal concentration (MBC) with E. coli (Escherichia coli) and in the data set with S. aureus [6] was below 100 µg/mL in each case. Also, the figures for the MIC in the data set on E. coli (setting [15]), with E. coli and against S. aureus [6] were below 100 µg/mL, <100 (<100) μg/mL and below 100 µg/mL, respectively.

In the case of `CCCNC(=O)[C@H](OC(=O)CCCCCCCCCN)[C@@H](OC(=O)CCCCCCCCCN)C(=O)NCCC.Cl.Cl` [Amphiphile B9], the minimum bactericidal concentration (MBC) is 500 µM and 322 µg/mL in the data set on E. coli (Escherichia coli); 250 µM and 171 µg/mL with S. aureus [6]. Moreover, the MIC in the data set on E. coli (setting [15]) is 500 µM and 322 µg/mL; with S. aureus [6] it was 125 µM and 80.5 µg/mL; in [1] (setting [7]) it was 125 µM; in data set [3] (setting [8]), 250 µM; in data set [4] (setting [9]), 500 µM; in [5] (setting [10]), 125 µM.
